Patent publication EP2681209B1, “COMPOUNDS AND METHODS FOR THE TREATMENT OF PAIN AND OTHER DISORDERS” (Aquilus Pharmaceuticals, Inc, priority 2011, dated 2012)

How the values were obtained:
[1] = In-vitro microsomal stability in mouse microsomes; format: in vitro ADME; conditions: 1 µM compound, mouse microsomes 0.3 mg/mL, at T = 60 minutes; for %Mean Remaining Parent without NADPH (%): control omitting NADPH
Protocol: Human and mouse microsomal stability was determined for select compounds following the method of Houston (Houston, JB; Biochem. Pharmacol. 47, (1994),1469).
1 µM concentration of compound and seperate human and mouse microsomes (0.3 mg/mL, BD bioscience) were used in the in-vitro assay. To ensure proper energy supply for microsomal degradation of compound, an energy regenerating system comprised of 100 mM potassium phosphate, 2mM NADPH, 3mM MgCl2, pH = 7.4. and the microsomal protein is added to each sample and the resulting suspension is then incubated in duplicate for 60 min at 37° C. in a rotary shaker. A control is run for each test agent in duplicate omitting NADPH to detect NADPH-free degradation. At T=0 and T= 60 min., an aliquot is removed from each experimental and control reaction and then mixed with an equal volume of ice-cold Stop Solution (consisting of 0.3% acetic acid in acetonitrile containing haloperidol and diclofenac as internal standards). Stopped reactions are then incubated for at least ten minutes at -20 °C, and an additional volume of water is then be added. The samples are then centrifuged to remove precipitated protein, and the supernatants are then analyzed by LC-MS/MS to determine the percentage of compound remaining. The LC-MS/MS system used was an Agilent 6410 mass spectrometer coupled with an Agilent 1200 HPLC and a CTC PAL chilled autosampler, all controlled by MassHunter software (Agilent), or an ABI2000 mass spectrometer coupled with an Agilent 1100 HPLC and a CTC PAL chilled autosampler, all controlled by Analyst software (ABI). After separation on a C18 reverse phase HPLC column (Agilent, Waters, or equivalent) using an acetonitrile-water gradient system, peaks were analyzed by mass spectrometry (MS) using ESI ionization in MRM mode.

FVB male mice = assay: Spinal nerve ligation (SNL) mouse model of neuropathic pain, intraperitoneal administration, von Frey tactile allodynia test; format: in vivo; conditions: for 50% paw withdrawal threshold, Mean, Day 1 / 50% paw withdrawal threshold, Mean, Day 2 / 50% paw withdrawal threshold, Mean, Day 5 / 50% paw withdrawal threshold, Mean, Day 6 / 50% paw withdrawal threshold, Mean, Day 7: IP 100 µl/mouse (approx. 3.3mg/Kg) daily injections day 1-5; for 50% paw withdrawal threshold, Mean, Day 0 Postoperative Baseline: group baseline after SNL injury, before first IP injection, von Frey
Source text: To measure the neuropathic pain inhibiting affects of the MMP inhibitors of the present invention, the spinal nerve ligation (SNL) mouse model was run on a select number of compounds. This model which began with the work of Bennet and coworkers (Bennet, G.J. et al. Pain, 33, (1988), 87-107) and was optimized by Kim and Chung (Kim, S.H.; Chung, J.M. Pain, 50, (1992), 355-363) entails first, under magnification, the removal of one-third of the transverse process and then identifying and then dissecting free the L5 spinal nerve from the adjacent L4 spinal nerve in the mouse. The L5 spinal nerve is then tightly ligated using 6.0 silk suture. The nerve injury leads to hyperalgesia which manifests itself by enhanced responses to mechanical, heat and/or cooling stimuli. In this case, mechanical hyperalgesia is tested via Von Frey monofilaments in which filaments of varying thicknesses and bending force are individually applied to the plantar surface of the foot of the mouse. The threshold force necessary for paw withdrawal decreases dramatically after the nerve surgery. Potent pain inhibitors will reverse this affect resulting in greater force needing to be applied to cause the rodent paw to withdrawal.
Tactile Allodynia Test. Mechanical allodynia was measured using the calibrated von Frey filaments (Semmes-Weinstein monofilaments; Stoelting, Wood Dale, IL, U.S.A.). The plantar surface of the left injured paw of each animal was tested as described by Chaplan et al. (Journal of Neuroscience Methods, 53, (1994), 55-63). The Fifty percent paw withdrawal threshold response was determined by sequentially increasing or decreasing the stimulus strength according to the "up-down method" of Dixon (Annual Review Pharmacology Toxicology, 20, (1980), 441-462). For mice, […] von Frey filaments were used, with approximately equal logarithmic incremental bending forces (von Frey number: 1.65, 2.36, 2.44, 2.83, 3.22, 3.61, 3.84, 4.08, and 4.17; equivalent to 0.005, 0.02, 0.03, 0.07, 0.17, 0.41, 0.69, 1.20, and 1.48g force, respectively).
Prior to testing, each animal was placed in a suspended clear plastic chamber with a wire mesh bottom and acclimated for 15 minutes. Testing was initiated with the 0.07 g (handle marking of 2.83) applied perpendicularly to the plantar surface of the affected hind paw; each filament was applied with enough pressure to cause a buckle effect. The absence of a paw lifting/withdrawal response after 6 s prompted the use of the next higher weight filament. Paw withdrawal, indicating a positive response, prompted the use of a weaker filament. After the initial positive response (i.e., paw withdrawal), the testing continued for four additional measurements, and was used to calculate the response threshold. Four consecutive positive responses received a score of 0.001 g, and five consecutive negative responses (i.e., no paw withdrawal) received a score of 1.5 g.
Analyses for Tactile Allodynia Testing. The 50% paw withdrawal threshold was calculated (PWT; Luo and Calcutt, J. Pharmacology Experimental Therapeutics, 303(3), (2002), 1199-1205; Chaplan et al. Journal of Neuroscience Methods, 53, (1994), 55-63) using the formula: 10(Xf + κδ)/10,000 [formula] where Xf is the final von Frey filament used (log units), κ is a value that analyzes the response pattern (taken from the table published by Chaplan et al., 1994), and δ is the mean difference between stimuli (log units).
Except for the mode of administration, number of mice/group and the number of injections and amount per injection of compound given, the rest of the study was done in the same manner (in regards to the surgeries and tactile allodynia testing and analysis) as Experiment 110. 3.2 mg of each of the MMP inhibitors #5 and #10 were dissolved in 320 microliters of DMSO. To the solution was then added 32 microliters of Tween 80, followed by 2850 microliters of phosphate buffered saline (PBS). This gave a final concentration of 10% DMSO, 1% Tween and 1mg/ml compound. […]

Compound | %Mean Remaining Parent with NADPH (%) [1] [%] | %Mean Remaining Parent without NADPH (%) [1] [%] | 50% paw withdrawal threshold, Mean, Day 1 (FVB male mice) [g] | 50% paw withdrawal threshold, Mean, Day 2 (FVB male mice) [g] | 50% paw withdrawal threshold, Mean, Day 5 (FVB male mice) [g] | 50% paw withdrawal threshold, Mean, Day 6 (FVB male mice) [g] | 50% paw withdrawal threshold, Mean, Day 7 (FVB male mice) [g] | 50% paw withdrawal threshold, Mean, Day 0 Postoperative Baseline (FVB male mice) [g] | reversal of mechanical alodynia (FVB male mice; i.p. administration, by day 5)
Cc1ccc(C#Cc2ccc(S(=O)(=O)N[C@H](Cc3c[nH]c4ccccc34)C(=O)O)s2)cc1 [Compound 5, (R)-3-(1H-Indol-3-yl)-2-(5-p-tolylethynyl-thiophene-2-sulfonylamino)-propionic acid] | 83 | 88 | 0.078 | 0.117 | 0.238 | 0.099 | 0.128 | 0.046 | 
[2H]C([2H])([2H])c1ccc(C#Cc2ccc(S(=O)(=O)N[C@H](Cc3c[nH]c4ccccc34)C(=O)O)s2)cc1 [Compound 10, (R)-3-(1H-Indol-3-yl)-2-[5-(4-trideuteromethyl-phenylethynyl)-thiophene-2-sulfonylamino]-propionic acid-(D3, 98%)] | 85 | 91 | 0.170 | 0.350 | 1.470 | 0.867 | 0.250 | 0.096 | complete reversal of mechanical alodynia by day 5
